From US12473304B2, “Heterocyclic PAD4 inhibitors” (BRISTOL-MYERS SQUIBB COMPANY, priority 2020, dated 2025)

Target: human PAD4 (hPAD4) (Homo sapiens (Human), UniProt Q9UM07)
Assay: RFMS Human PAD4 Functional Assay 1
Assay type: biochemical
Settings: RFMS assay 1; 5 nM hPAD4, 250 μM BAEE substrate, 50 μM calcium, 37° C.
Summary of the method: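 Citrullination product read by RapidFire triple-quad MRM against a modified-citrulline internal standard, after TCA stop and 30 min phenyl glyoxal step at 37 °C. Reaction: 250 μM BAEE, 5 nM human PAD4, 90 min at 37 °C, pH 7.5 HEPES buffer with 50 μM calcium and 5 μM TPEN, following 30 min compound–enzyme preincubation (max 50 μM).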

Sequence of human PAD4 (hPAD4) (Q9UM07 whole entry): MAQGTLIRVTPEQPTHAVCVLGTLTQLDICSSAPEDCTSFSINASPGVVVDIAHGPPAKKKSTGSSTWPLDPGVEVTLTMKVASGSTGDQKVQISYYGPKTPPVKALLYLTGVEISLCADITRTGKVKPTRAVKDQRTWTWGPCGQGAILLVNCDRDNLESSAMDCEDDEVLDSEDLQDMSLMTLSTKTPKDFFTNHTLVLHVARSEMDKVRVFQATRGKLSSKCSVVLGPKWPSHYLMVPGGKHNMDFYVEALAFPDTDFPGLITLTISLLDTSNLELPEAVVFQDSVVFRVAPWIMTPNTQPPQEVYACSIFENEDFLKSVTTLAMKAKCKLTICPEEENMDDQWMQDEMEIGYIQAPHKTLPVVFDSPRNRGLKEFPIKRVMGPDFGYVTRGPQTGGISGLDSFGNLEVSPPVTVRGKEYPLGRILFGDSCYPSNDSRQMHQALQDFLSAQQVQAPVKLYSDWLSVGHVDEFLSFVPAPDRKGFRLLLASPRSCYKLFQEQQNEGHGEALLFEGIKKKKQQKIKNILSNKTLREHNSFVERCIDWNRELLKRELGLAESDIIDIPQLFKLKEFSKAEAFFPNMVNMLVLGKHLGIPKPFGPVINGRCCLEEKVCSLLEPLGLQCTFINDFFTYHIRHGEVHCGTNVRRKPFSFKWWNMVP

Structure (SMILES)	IC50
COc1cc(C(=O)N2CCC[C@@H](N)C2)cn2nc(-c3cc4cc(F)cc(C5CCN(C(C)=O)CC5)c4n3CC3CC3)c(C)c12 [Example 483, (R)-1-(4-(2-(6-(3-Aminopiperidine-1-carbonyl)-4-methoxy-3-methylpyrazolo[1,5-a]pyridin-2-yl)-1-(cyclopropylmethyl)-5-fluoro-1H-indol-7-yl)piperidin-1-yl)ethan-1-one]	150 nM
Cc1c(-c2cc3cc(F)cc(C4CCN(C(=O)[C@H]5CC[C@H](O)CC5)CC4)c3n2CC2CC2)nn2cc(C(=O)N3CCC[C@@H](N)C3)ccc12 [Example 484, ((R)-3-Aminopiperidin-1-yl)(2-(1-(cyclopropylmethyl)-5-fluoro-7-(1-((1r,4r)-4-hydroxycyclohexane-1-carbonyl)piperidin-4-yl)-1H-indol-2-yl)-3-methylpyrazolo[1,5-a]pyridin-6-yl)methanone]	150 nM
Cc1c(-c2cc3cc(F)cc(C4CCN(C(=O)[C@H]5CC[C@@H](O)CC5)CC4)c3n2CC2CC2)nn2cc(C(=O)N3CCC[C@@H](N)C3)ccc12 [Example 485, ((R)-3-Aminopiperidin-1-yl)(2-(1-(cyclopropylmethyl)-5-fluoro-7-(1-((1s,4s)-4-hydroxycyclohexane-1-carbonyl)piperidin-4-yl)-1H-indol-2-yl)-3-methylpyrazolo[1,5-a]pyridin-6-yl)methanone]	150 nM
Cc1c(-c2cc3cc(F)cc(C4CCN(C(=O)[C@H]5CC[C@@H](O)CC5)CC4)c3n2CC2CC2)nn2cc(C(=O)N3C[C@H](N)C[C@@H](F)C3)ccc12 [Example 486, ((3R,5R)-3-Amino-5-fluoropiperidin-1-yl)(2-(1-(cyclopropylmethyl)-5-fluoro-7-(1-((1s,4s)-4-hydroxycyclohexane-1-carbonyl)piperidin-4-yl)-1H-indol-2-yl)-3-methylpyrazolo[1,5-a]pyridin-6-yl)methanone]	70 nM
Cc1c(-c2cc3cc(F)cc(C4CCN(C(=O)[C@H]5CC[C@H](O)CC5)CC4)c3n2CC2CC2)nn2cc(C(=O)N3C[C@H](N)C[C@@H](F)C3)ccc12 [Example 487, ((3R,5R)-3-Amino-5-fluoropiperidin-1-yl)(2-(1-(cyclopropylmethyl)-5-fluoro-7-(1-((1r,4r)-4-hydroxycyclohexane-1-carbonyl)piperidin-4-yl)-1H-indol-2-yl)-3-methylpyrazolo[1,5-a]pyridin-6-yl)methanone]	200 nM
COC(C)(C)C(=O)N1CCC(c2cc(F)cc3cc(-c4nn5cc(C(=O)N6CCC[C@@H](N)C6)ccc5c4C)n(CC4CC4)c23)CC1 [Example 493, (R)-1-(4-(2-(6-(3-Aminopiperidine-1-carbonyl)-3-methylpyrazolo[1,5-a]pyridin-2-yl)-1-(cyclopropylmethyl)-5-fluoro-1H-indol-7-yl)piperidin-1-yl)-2-methoxy-2-methylpropan-1-one]	110 nM
Cc1c(-c2cc3cc(F)cc(C4CCN(C(=O)CC(C)C)CC4)c3n2CC2CC2)nn2cc(C(=O)N3C[C@H](N)C[C@@H](F)C3)ccc12 [Example 495, 1-(4-(2-(6-((3R,5R)-3-Amino-5-fluoropiperidine-1-carbonyl)-3-methylpyrazolo[1,5-a]pyridin-2-yl)-1-(cyclopropylmethyl)-5-fluoro-1H-indol-7-yl)piperidin-1-yl)-3-methylbutan-1-one]	330 nM
CO[C@H](C)C(=O)N1CCC(c2cc(F)cc3cc(-c4nn5cc(C(=O)N6CCC[C@@H](N)C6)ccc5c4C)n(CC4CC4)c23)CC1 [Example 497, (R)-1-(4-(2-(6-((R)-3-Aminopiperidine-1-carbonyl)-3-methylpyrazolo[1,5-a]pyridin-2-yl)-1-(cyclopropylmethyl)-5-fluoro-1H-indol-7-yl)piperidin-1-yl)-2-methoxypropan-1-one]	40 nM
CO[C@H](C)C(=O)N1CCC(c2cc(F)cc3cc(-c4nn5cc(C(=O)N6C[C@H](N)C[C@@H](F)C6)ccc5c4C)n(CC4CC4)c23)CC1 [Example 498, (R)-1-(4-(2-(6-((3R,5R)-3-Amino-5-fluoropiperidine-1-carbonyl)-3-methylpyrazolo[1,5-a]pyridin-2-yl)-1-(cyclopropylmethyl)-5-fluoro-1H-indol-7-yl)piperidin-1-yl)-2-methoxypropan-1-one]	70 nM
CO[C@@H](C)C(=O)N1CCC(c2cc(F)cc3cc(-c4nn5cc(C(=O)N6CCC[C@@H](N)C6)ccc5c4C)n(CC4CC4)c23)CC1 [Example 499, (S)-1-(4-(2-(6-((R)-3-Aminopiperidine-1-carbonyl)-3-methylpyrazolo[1,5-a]pyridin-2-yl)-1-(cyclopropylmethyl)-5-fluoro-1H-indol-7-yl)piperidin-1-yl)-2-methoxypropan-1-one]	150 nM
CO[C@@H](C)C(=O)N1CCC(c2cc(F)cc3cc(-c4nn5cc(C(=O)N6C[C@H](N)C[C@@H](F)C6)ccc5c4C)n(CC4CC4)c23)CC1 [Example 500, (S)-1-(4-(2-(6-((3R,5R)-3-Amino-5-fluoropiperidine-1-carbonyl)-3-methylpyrazolo[1,5-a]pyridin-2-yl)-1-(cyclopropylmethyl)-5-fluoro-1H-indol-7-yl)piperidin-1-yl)-2-methoxypropan-1-one]	240 nM
COC(C)(C)C(=O)N1CCC(c2cc(F)cc3cc(-c4nn5cc(C(=O)N6C[C@H](N)C[C@@H](F)C6)ccc5c4C)n(CC4CC4)c23)CC1 [Example 501, 1-(4-(2-(6-((3R,5R)-3-Amino-5-fluoropiperidine-1-carbonyl)-3-methylpyrazolo[1,5-a]pyridin-2-yl)-1-(cyclopropylmethyl)-5-fluoro-1H-indol-7-yl)piperidin-1-yl)-2-methoxy-2-methylpropan-1-one]	130 nM
COCC(=O)N1CCC(c2cc(F)cc3cc(-c4nn5cc(C(=O)N6CCC[C@@H](N)C6)ccc5c4C)n(CC4CC4)c23)CC1 [Example 502, (R)-1-(4-(2-(6-(3-Aminopiperidine-1-carbonyl)-3-methylpyrazolo[1,5-a]pyridin-2-yl)-1-(cyclopropylmethyl)-5-fluoro-1H-indol-7-yl)piperidin-1-yl)-2-methoxyethan-1-one]	70 nM
COCC(=O)N1CCC(c2cc(F)cc3cc(-c4nn5cc(C(=O)N6C[C@H](N)C[C@@H](F)C6)ccc5c4C)n(CC4CC4)c23)CC1 [Example 503, 1-(4-(2-(6-((3R,5R)-3-Amino-5-fluoropiperidine-1-carbonyl)-3-methylpyrazolo[1,5-a]pyridin-2-yl)-1-(cyclopropylmethyl)-5-fluoro-1H-indol-7-yl)piperidin-1-yl)-2-methoxyethan-1-one]	60 nM
Cc1c(-c2cc3cc(F)cc(C4CCN(C(=O)C5CC(O)(C(F)(F)F)C5)CC4)c3n2CC2CC2)nn2cc(C(=O)N3CCC[C@@H](N)C3)ccc12 (stereo partly drawn) [Example 504, (R)-(3-Aminopiperidin-1-yl)(2-(1-(cyclopropylmethyl)-5-fluoro-7-(1-(3-hydroxy-3-(trifluoromethyl)cyclobutane-1-carbonyl)piperidin-4-yl)-1H-indol-2-yl)-3-methylpyrazolo[1,5-a]pyridin-6-yl)methanone]	110 nM
CC(=O)N1CCC(c2cc(F)cc3cc(-c4nn5cc(C(=O)N6CCC[C@@H](N)C6)ccc5c4C)n(CC4CC4)c23)CC1 [Example 506, (R)-1-(4-(2-(6-(3-Aminopiperidine-1-carbonyl)-3-methylpyrazolo[1,5-a]pyridin-2-yl)-1-(cylcopropylmethyl)-5-fluoro-1H-indol-7-yl)piperidin-1-yl)ethan-1-one]	70 nM
CC(=O)N1CCC(c2cc(F)cc3cc(-c4nn5cc(C(=O)N6C[C@H](N)C[C@@H](F)C6)ccc5c4C)n(CC4CC4)c23)CC1 [Example 507, 1-(4-(2-(6-((3R,5R)-3-Amino-5-fluoropiperidine-1-carbonyl)-3-methylpyrazolo[1,5-a]pyridin-2-yl)-1-(cyclopropylmethyl)-5-fluoro-1H-indol-7-yl)piperidin-1-yl)ethan-1-one]	170 nM
COCC(=O)N1CCC(c2nccc3cc(-c4nn5cc(C(=O)N6C[C@H](N)C[C@@H](F)C6)cc(OC)c5c4C)n(CC4CC4)c23)CC1 [Example 511, 1-(4-(2-(6-((3R,5R)-3-Amino-5-fluoropiperidine-1-carbonyl)-4-methoxy-3-methylpyrazolo[1,5-a]pyridin-2-yl)-1-(cyclopropylmethyl)-1H-pyrrolo[2,3-c]pyridin-7-yl)piperidin-1-yl)-2-methoxyethan-1-one]	10 nM
COc1cc(C(=O)N2C[C@H](N)C[C@@H](F)C2)cn2nc(-c3cc4cccc(C5CN(C(=O)[C@H]6CC[C@H](O)CC6)C5)c4n3CC3CC3)c(C)c12 [Example 514, ((3R,5R)-3-Amino-5-fluoropiperidin-1-yl)(2-(1-(cyclopropylmethyl)-7-(1-((1R,4R)-4-hydroxycyclohexane-1-carbonyl)azetidin-3-yl)-1H-indol-2-yl)-4-methoxy-3-methylpyrazolo[1,5-a]pyridin-6-yl)methanone]	60 nM
COc1cc(C(=O)N2CCC[C@@H](N)C2)cn2nc(-c3cc4cccc(C5CN(C(=O)C(C)(C)OC)C5)c4n3CC3CC3)c(C)c12 [Example 516, (R)-1-(3-(2-(6-(3-Aminopiperidine-1-carbonyl)-4-methoxy-3-methylpyrazolo[1,5-a]pyridin-2-yl)-1-(cyclopropylmethyl)-1H-indol-7-yl)azetidin-1-yl)-2-methoxy-2-methylpropan-1-one]	1040 nM
COc1cc(C(=O)N2CCC[C@@H](N)C2)cn2nc(-c3cc4cccc(C5CN(C(=O)[C@H]6CC[C@H](O)CC6)C5)c4n3CC3CC3)c(C)c12 [Example 517, ((R)-3-Aminopiperidin-1-yl)(2-(1-(cyclopropylmethyl)-7-(1-((1r,4r)-4-hydroxycyclohexane-1-carbonyl)azetidin-3-yl)-1H-indol-2-yl)-4-methoxy-3-methylpyrazolo[1,5-a]pyridin-6-yl)methanone]	60 nM
